Experimental data taken from US6037463A, “Enzymatic RNA molecules that cleave mutant N-RAS” (priority 1996, dated 2000).

How the values were obtained:
[1] = system: synthetic oligoribonucleotide substrate of 15 nucleotides, mutant N-ras mRNA (codon 13); assay: Kinetics with synthetic substrates (multiple turnover), ribozymes against mutant N-ras; type: biochemical; details: Table IA, Michaelis-Menten conditions; for kcat: 37° C., 10 mM MgCl2
Description: (§1) In one investigation, short synthetic oligoribonucleotides of 15 nucleotides chain length served as substrates. Cleavage kinetics of all ribozymes were carried out under Michaelis-Menten conditions. […] Ribozymes RE990 or RE1035 against the wild type mRNA as well as their substrate complexes on the other hand reveal Tm values of approximately 52° C.
(§2) Kinetic constants Km and kcat were determined from Eadie-Hofstee plots carried out with 5'-^32 P-labeled substrate. The RNA substrate was labeled by reaction with T4 polynucleotide kinase and [γ-^32P]-ATP. 5'-end labeled substrate was purified from [γ-^32 P]-ATP with CENTRICON-3 tubes. Ribozyme and substrate were heated separately for 1 min at 75° C. in 50 mM Tris-Cl (pH 7.5). After cooling to 37° C. for 5 min, 100 mM MgCl2 were added to a final concentration of 10 mM, and the solution was incubated for an additional 5 min at 37° C. Multiple turnover reactions were carried out in a volume of 100 μl with concentrations of substrate between 20-500 nM and ribozyme concentrations from 2 to 5 nM in 50 mM Tris-Cl (pH 7.5) and 10 mM MgCl2 at 37° C. Reactions were initiated by addition of ribozyme. The reaction was stopped by mixing the ribozymes with an equal volume of stop solution (8 M urea, 25 mM EDTA). The cleavage reactions were analyzed on 20% denaturing polyacrylamide gels (8 M urea) and scanned on a Molecular Dynamic Phosphorimaging system.

[2] = system: in vitro transcribed wild type N-ras mRNA; assay: Kinetics with in vitro transcribed RNA (single-turnover), wild type; type: biochemical; details: for cleavage of wild type N-ras mRNA: ribozymes directed against mutant mRNA
Excerpt: (§3) In a further investigation, RNA containing the mutant or wild type N-ras sequence from transcription initiation site to termination site was synthesized by in vitro transcription. In order to achieve efficient mRNA cleavage, the target sequence of the substrate (NUX-triplet, N=A,G,C,U; X=C,A,U) is not allowed to be double-stranded or part of a stable hairpin. The in vitro transcribed RNA served as substrate for five ribozymes mentioned above. The catalytic efficiency was examined under "single-turnover" conditions to detect the splice products.
(§4) For in vitro transcription, pMS5-NRAS, pMS5A-NRAS and pMS5B-NRAS were linearized by EcoRI digestion, phenol-extracted and ethanol-precipitated. Transcription was carried out in a 100 μl mixture containing 50 ng/μl linearized plasmid DNA, 10 mM DTT, 40 mM Tris-Cl (pH 7.5), 50 mM NaCl, 8 mM MgCl2, 2 mM spermidine, 500 μM rNTP's, 0.8 U/μl RNAse-lnhibitor, 2 μCi/μl [α-^32 P]-ATP and 2.5 U/μl T7 RNA Polymerase. A one-hour incubation at 37° C. was followed by the addition of 25 Units of DNAsel, and the mixture was incubated for an additional 30 min at 37° C. After subsequent phenol extraction, the aqueous phase was transferred into a CENTRICON-100 tube and centrifuged at 3,400 U/min for 30 min. The RNA-solution was checked for homogeneity by UV absorption and 6% analytical PAGE (8 M urea). The solution was stored frozen at -20° C.
(§5) The cleavage efficiency under "single-turnover" conditions was determined in a volume of 10 μl using 20-1200 nM ribozyme, 50 mM Tris-Cl (pH 7.5) and 10 mM MgCl2. The reaction was initiated by addition of RNA substrate to a final concentration of 10 nM substrate over 1 h at 37° C. The reaction was stopped by mixing 8 μl of stop solution to each reaction. The reaction was analyzed on 6% denaturing polyacrylamide gels and scanned on a Molecular Dynamics Phosphor Imager. The single turnover kcat /Km values were determined as described by Heidenreich et al., J. Biol. Chem. 267:1904 (1992).

[3] = system: in vitro transcribed mutant N-ras mRNA (codon 13); assay: Kinetics with in vitro transcribed RNA (single-turnover), mutant; type: biochemical
Excerpt: as §3, §4, §5

[4] = system: synthetic substrate, mutant N-ras mRNA (codon 13); assay: Melting curves (Tm) of ribozyme-substrate complexes, mutant; type: binding; details: ribozyme-substrate complex
Description: as §1
(§6) UV temperature curves were measured at 260 nm using a Varian Cary-1 UV/VIS-spectrophotometer. The target was prepared by dissolving the ribozyme in a buffer containing 50 mM Tris-Cl (pH 7.5) and 10 mM MgCl2. The sample was transferred in a cuvette with a 10 mm path length. The ribozyme was denatured at 80° C. for 5 min, and subsequently the substrate RNA and substrate DNA were added and the whole mixture was renatured at 1° C./min. Melting curves at 260 nm were performed by heating the solution in the cuvette at 0.75° C./min and acquiring absorbance data every 0.5° C. step until 80° C. was reached. The Tm value and thermodynamic parameters of transition were obtained by fitting data of a two transition state model with the GraFit version 2.0 from Sigma Chemicals Co. software using the method of Marky and Breslauer, Biopolymers 26:1601 (1987).

[5] = system: N-ras transformed NIH3T3 cells (mutation in codon 13, clones 2 and 4); assay: Colony-forming soft agar assay, retrovirally mediated ribozyme; type: cell-based; details: beyond the effect of the retroviral vector alone
Description: The cells of the constitutively N-ras expressing clones 2 and 4 (mutation in codon 13) were subcultured in soft agar using the colony-forming agar assay of Cowley et al., Cell 77:841 (1994). The colony-forming agar assay is a semisolid method in which cells are suspended in a 0.3% agar upper layer and plated out over a 0.5% agar lower layer in Petri dishes. The lower layer was prepared by heating a 2.5% solution of agar in deionized water. After cooling the agar to 45° C. in a water bath, an agar mix of 0.5% agar was prepared by combining 25 ml of 1×DMEM medium, 10 ml of 2.5% agar, 10 ml of 2×DMEM medium, and 5 ml of fetal calf serum. One milliliter samples of the agar mix were pipetted into 35 mm Petri culture dishes and stored at 4° C. for 30 minutes.
The upper layer was prepared by adding 0.2 ml of agar mix to 1 ml of about 5×10^4 cells/ml suspension, and adding DMEM medium to a total volume of 1.7 ml. One milliliter samples were pipette onto bottom agar layers and incubated for 14-21 days at 37° C. […]
The soft agar cultures were incubated for […] at 37° C. and 5% CO2. The reduction in transformed N-ras NIH3T3 cells was analyzed by counting cell clusters under a microscope. The soft agar preparations were set up in quadruplicate for each construct and the mean values were calculated, as presented in Table VII.

[6] = system: synthetic oligoribonucleotide substrate of 15 nucleotides, wild-type N-ras mRNA (codon 64, 89 or 103); assay: Kinetics with synthetic substrates (multiple turnover), ribozymes against wild-type N-ras; type: biochemical; details: for Km / kcat: Table IA, Michaelis-Menten conditions; for kcat: 37° C., 10 mM MgCl2
Description: as §1, §2

[7] = system: synthetic substrate, wild type N-ras mRNA; assay: Melting curves (Tm) of ribozyme-substrate complexes, wild type; type: binding; details: ribozyme-substrate complex
Description: as §1, §6

[8] = Table IIA, single-turnover, transcribed N-ras mRNA
[9] = Table III, modified ribozymes, transcribed N-ras mRNA
[10] = Table IIB, single-turnover, transcribed RNA

Substance	Km [1] [µM]	kcat [1] [s⁻¹]	cleavage of wild type N-ras mRNA [2]	Km [3, 8] [µM]	kcat [3, 8]	Km [3, 9] [µM]	kcat [3, 9]	Tm [4]	Km [6] [µM]	kcat [6] [s⁻¹]	Km [2, 8] [µM]	kcat [2, 8]	Tm [7]	further results
5'-CCAACACCUGAUGAGCGUUAGCGAAACCUGCU-3' (chemistry not given here)	0.082	0.015	do not cleave	0.071	266 10^6 × s^-1	0.071	266 10^6 × s^-1	approximately 48 °C						reversion of the malignant phenotype [5]: about 18%
RE917: ribozyme against codon 64 of the wild-type N-ras mRNA, SEQ ID NO:14 (GGCACUGCUGAUGAGCGUUAGCUAAACUCUUC; chemistry not given here)									0.078	0.013	0.063	59 10^6 × s^-1		Km [2, 10]: 0.063 µM; kreact [2, 10]: 59 10^6 s^-1; Km [2, 9]: 0.063 µM; kcat [2, 9]: 59 10^6 × s^-1
5'-UCCCAACCUGAUGAGCGUUAGCGAAACACCUG-3' (chemistry not given here)	0.065	0.012	do not cleave	0.113	137 10^6 × s^-1	0.113	137 10^6 × s^-1	approximately 48 °C						Km [3, 10]: 0.113 µM; kreact [3, 10]: 137 10^6 s^-1
RE1035: ribozyme against codon 103 of the wild-type N-ras mRNA, SEQ ID NO:16 (AGUCUUUCUGAUGAGCGUUAGCGAAACUCGCU; chemistry not given here)									0.277	0.013	0.425	44 10^6 × s^-1	approximately 52 °C	
RE990: ribozyme against codon 89 of the wild-type N-ras mRNA, SEQ ID NO:15 (CGCAAAUCUGAUGAGCGUUAGCGAAACUUGCU; chemistry not given here)									0.404	0.004	0.234	72 10^6 × s^-1	approximately 52 °C	kcat /Km [6]: much less catalytic efficiency
